Test results: patent US20210292330A1, “PYRROLIDINE-FUSED HETEROCYCLES” (Erasca, Inc., priority 2020, published 2021)

Target: T1, KRAS 4B G12C protein (Homo sapiens, UniProt P01116, G12C)
T1 construct: This protein contained 188 amino acids in total, including an N-terminal 6-Histidine tag; made in house; host or cells: E. coli BL21
Assay: In vitro covalent adduct formation (CAF) assay by LC-MS
Format: binding
Details: compound 10 μM, protein 5 μM, 22° C., percentage of protein bound by the compound
Procedure: In vitro covalent adduct formation assay: Covalent adduct formation (CAF) reactions between Cys12 of the KRAS 4B G12C protein and some of the compounds of Table 1 were measured in vitro using liquid chromatography-mass spectrometry (LC-MS).
Recombinant Human KRAS 4B protein containing the G12C mutation was used in compound screening experiments. This protein contained 188 amino acids in total, including an N-terminal 6-Histidine tag, followed by a Tobacco Etch Virus (TEV) tag, followed by residues 1-169 of the native KRAS 4B sequence. The exact mass of the protein was 21,310 Da as determined by mass spectrometry. The full amino acid sequence is shown below:
The recombinant protein was expressed in E. coli BL21 cells and purified using affinity chromatography via a Ni-NTA column. […] Pure KRAS 4B G12C protein was diluted to a concentration of 5 μM in Tris Buffered Saline, pH 7.4. The compounds were dissolved in DMSO and added to the diluted protein to make a 10 μM concentration. The total DMSO concentration in the reaction was 4%. The reaction was mixed by pipetting and incubated at 22° C. for one hour. Aliquots of the reaction were taken over time and diluted 2:1 in 0.1% formic acid. The intact mass of the protein samples was measured by LC-MS using a QExactive+ mass spectrometer (Thermo Scientific). An amount of 500 ng total protein was injected onto a C8 reverse phase column, eluted with a seven-minute gradient of 30%-90% acetonitrile/0.1% formic acid, and analyzed for intact mass by the mass spectrometer. Adducts identified were confirmed to be within 1 Dalton of the expected mass, and the relative ratios of free:adduct protein were used to quantify the percentage of protein bound by the compound. CAF reactions were run in duplicate, with a typical variability of ±5%.

CAF (10 minutes/60 minutes) at 10 micromolar: 10 minutes	CAF (10 minutes/60 minutes) at 10 micromolar: 60 minutes	SMILES
10%	19%	C=CC(=O)N1CCN(c2nc(OC[C@@H]3CCCN3C)nc3c2CN(C2CCc4ccccc42)C3)C[C@@H]1C(N)=O (stereo partly drawn) [1-159, (2R)-1-acryloyl-4-(6-(2,3-dihydro-1H-inden-1-yl)-2-(((S)-1-methylpyrrolidin-2-yl)methoxy)-6,7-dihydro-5H-pyrrolo[3,4-d]pyrimidin-4-yl)piperazine-2-carboxamide]
24%	68%	C=CC(=O)N1CCN(c2nc(OCc3ccccn3)nc3c2CN(C2CCc4ccccc42)C3)C[C@@H]1CC#N (stereo partly shown) [1-132]
96%	97%	C=CC(=O)N1CCN(c2nc(OC[C@@H]3CCCN3C)nc3c2CN(Cc2cc(O)ccc2CC)C3)C[C@@H]1CC#N [1-184]
0%	2%	C=C(F)C(=O)N1CCN(c2nc(OC[C@@H]3CCCN3C)nc3c2CN(Cc2n[nH]cc2C)C3)C[C@@H]1CC#N [1-344]
76%	91%	C=CC(=O)N1CCN(c2nc(OC[C@@H]3CCCN3C)nc3c2CN(C2CCCc4ccccc42)C3)C[C@@H]1CC#N (stereo partly drawn) [1-52 (2nd isomer)]
96%	98%	C=CC(=O)N1CCN(c2nc(OC[C@@H]3CCCN3C)nc3c2CN(Cc2cccc(Cl)c2Cl)C3)C[C@@H]1CC#N [1-81]
98%/ 98%	98%/ 98%	C=CC(=O)N1CCN(c2nc(OCCN3CCOCC3)nc3c2CN(Cc2cc(O)ccc2Cl)C3)C[C@@H]1CC#N [1-134]
51%	71%	C=CC(=O)N1CCN(c2nc(OC[C@@H]3CCCN3CC(F)(F)F)nc3c2CN(C2CCc4ccccc42)C3)C[C@@H]1CC#N (stereo partly shown) [1-141]
51%	93%	C=CC(=O)N1CCN(c2nc(OC[C@@H]3CCCN3C)nc3c2CN(Cc2ccc(F)cc2Cl)C3)C[C@@H]1CC#N [1-96]
0%	1%	C=CC(=O)N1CCN(c2nc(OC[C@@H]3CCCN3C)nc3c2CN(C2CCc4ccccc42)C3)C[C@@H]1Cn1ccnc1 (stereo partly shown) [1-219]
63%	93%	C=CC(=O)N1CCN(c2nc(OC[C@@H]3CCCN3C)nc3c2CN(Cc2c(Cl)c(F)cc4[nH]ncc24)C3)C[C@@H]1CC#N [1-183]
61%	86%	C=CC(=O)N1CCN(c2nc(OC[C@@H]3CCCN3C)nc3c2CN(C(C)c2cc(F)ccc2C)C3)C[C@@H]1CC#N (stereo partly shown) [1-73]
52%	86%	C=CC(=O)N1CCN(c2nc(OC[C@@H]3CCCN3C)nc3c2CN(Cc2cc(O)c(Cl)cc2Cl)C3)C[C@@H]1CC#N [1-330]
0%	6%	C=CC(=O)N1CCN(c2nc(OC[C@@H]3CCCN3C)nc3c2CN(c2cccc4cccc(C)c24)C3)[C@@H](C)C1 [1-31]
31%	73%	C=C(F)C(=O)N1CCN(c2nc(OC[C@@H]3CCCN3C)nc3c2CN(Cc2c(Cl)ccc4ccccc24)C3)C[C@@H]1CC#N [1-254]
32%/ 32%	32%/ 32%	C=CC(=O)N1CCN(c2nc(OC[C@@H]3CCCN3C)nc3c2CN(C2CC(C)(C)c4ccc(O)cc42)C3)C[C@@H]1CC#N (stereo partly shown) [1-194]
3%	23%	C=CC(=O)N1CCN(c2nc(OC[C@@H]3CCCO3)nc3c2CN(Cc2c(F)cccc2OC)C3)C[C@@H]1CC#N [1-79]
97%	99%	C=C(F)C(=O)N1CCN(c2nc(OC[C@@H]3CCCN3C)nc3c2CN(Cc2cc(O)ccc2Cl)C3)C[C@@H]1CC#N [1-87]

CAF (10 minutes/60 minutes) at 10 micromolar: 10 minutes	CAF (10 minutes/60 minutes) at 10 micromolar: 60 minutes	SMILES
74%/ 74%	74%/ 74%	C=CC(=O)N1CCN(c2nc(OC[C@@H]3CCCN3C)nc3c2CN(Cc2cc(O)ccc2Cl)C3)C[C@@H]1CC#N [1-26, 2-((S)-1-acryloyl-4-(6-(2-chloro-5-hydroxybenzyl)-2-(((S)-1-methylpyrrolidin-2-yl)methoxy)-6,7-dihydro-5H-pyrrolo[3,4-d]pyrimidin-4-yl)piperazin-2-yl)acetonitrile]
31%	53%	C=CC(=O)N1CCN(c2nc(O[C@@H]3CN(C)C[C@H]3OC)nc3c2CN(C2CCc4ccccc42)C3)C[C@@H]1CC#N (stereo partly shown) [1-170]
0%	7%	C=CC(=O)N1CCN(c2nc(O)nc3c2CN(C2CCc4ccccc42)C3)C[C@@H]1CC#N (stereo partly shown) [1-135]
87%	95%	C=C(F)C(=O)N1CCN(c2nc(OC[C@@H]3CCCN3C)nc3c2CN(Cc2c(CC)ccc(O)c2OC)C3)C[C@@H]1CC#N [1-313]
98%	99%	C=CC(=O)N1CCN(c2nc(OC[C@@H]3CCCN3C)nc3c2CN(C2CCc4cccc(Cl)c42)C3)C[C@@H]1CC#N (stereo partly shown) [1-84]
97%	98%	C=CC(=O)N1CCN(c2nc(OC[C@@H]3CCCN3C)nc3c2CN(Cc2cc(O)ccc2Cl)C3)[C@@H](C)C1 [1-43]
	NA/ 0%	C=C(F)C(=O)N1CCN(c2nc(OCCC(F)F)nc3c2CN(C2CCc4ccccc42)C3)C[C@@H]1CC#N (stereo partly shown) [1-167]
78%	91%	C=CC(=O)N1CCN(c2nc(OC[C@@H]3CCCN3C)nc3c2CN(Cc2c(C)cccc2O)C3)C[C@@H]1CC#N [1-55]
62%	92%	C=C(F)C(=O)N1CCN(c2nc(OC[C@@H]3CCCN3C)nc3c2CN(Cc2ccccc2C(F)(F)F)C3)C[C@@H]1CC#N [1-221]
64%	95%	C=C(F)C(=O)N1CCN(c2nc(OC[C@@H]3CCCN3C)nc3c2CN(C2CCc4cccc(Cl)c42)C3)C[C@@H]1CC#N (stereo partly shown) [1-127]
88%	96%	C=CC(=O)N1CCN(c2nc(OC[C@@H]3CCCN3C)nc3c2CN(Cc2cc(O)ccc2Cl)C3)CC1 [1-165]
1%	15%	C=CC(=O)N1C[C@H](C)N(c2nc(OC[C@@H]3CCCN3C)nc3c2CN(Cc2c(C)ccc4[nH]ncc24)C3)C[C@H]1C [1-22]
96%	97%	C=CC(=O)N1CCN(c2nc(OC[C@@H]3CCCN3C)nc3c2CN(Cc2cc(O)ccc2C(C)C)C3)C[C@@H]1CC#N [1-185]
89%	96%	C=CC(=O)N1CCN(c2nc(OC[C@@H]3CCCN3C)nc3c2CN(Cc2ccccc2F)C3)C[C@@H]1CC#N [1-102]
72%	93%	C=CC(=O)N1CCN(c2nc(OC[C@@H]3CCCN3C)nc3c2CN(Cc2cc(O)c(C)cc2Cl)C3)C[C@@H]1CC#N [1-323]
0%	18%	C=CC(=O)N1CCN(c2nc(OC[C@@H]3CCCN3C3CC(=O)C3)nc3c2CN(C2CCc4ccccc42)C3)C[C@@H]1CC#N (stereo partly shown) [1-208]
0%/ 0%	0%/ 0%	C=CC(=O)N1CCN(c2nc(OC[C@@H]3CCCN3C)nc3c2CN(Cc2cc(C(F)(F)F)ccc2C)C3)[C@@H](C)C1 [1-15]
96%	97%	C=CC(=O)N1CCN(c2nc(OC[C@@H]3CCCN3C)nc3c2CN(Cc2c(O)cccc2F)C3)C[C@@H]1CC#N [1-7, 2-((S)-1-acryloyl-4-(6-(2-fluoro-6-hydroxybenzyl)-2-(((S)-1-methylpyrrolidin-2-yl)methoxy)-6,7-dihydro-5H-pyrrolo[3,4-d]pyrimidin-4-yl)piperazin-2-yl)acetonitrile]

SMILES	CAF (10 minutes/60 minutes) at 10 micromolar: 10 minutes	CAF (10 minutes/60 minutes) at 10 micromolar: 60 minutes
C=CC(=O)N1CC2COCC(C1)N2c1nc(OC[C@@H]2CCCN2C)nc2c1CN(Cc1cc(O)ccc1Cl)C2 [1-90]	2%	12%
